Each structure is given as a SMILES string. “Also recorded” adds a separate entry of the source.

Assay [1] has as its target T1, human P2X3 receptors (hP2X3Rs) (Homo sapiens, UniProt P56373).
T1 construct: transfected with rat or human full-length P2X3 cDNA subcloned into pIRES2-EGFP; expressed in transfected cells; host or cells: HEK293T (HEK293 in the results)
T1 sequence (P56373 1-397): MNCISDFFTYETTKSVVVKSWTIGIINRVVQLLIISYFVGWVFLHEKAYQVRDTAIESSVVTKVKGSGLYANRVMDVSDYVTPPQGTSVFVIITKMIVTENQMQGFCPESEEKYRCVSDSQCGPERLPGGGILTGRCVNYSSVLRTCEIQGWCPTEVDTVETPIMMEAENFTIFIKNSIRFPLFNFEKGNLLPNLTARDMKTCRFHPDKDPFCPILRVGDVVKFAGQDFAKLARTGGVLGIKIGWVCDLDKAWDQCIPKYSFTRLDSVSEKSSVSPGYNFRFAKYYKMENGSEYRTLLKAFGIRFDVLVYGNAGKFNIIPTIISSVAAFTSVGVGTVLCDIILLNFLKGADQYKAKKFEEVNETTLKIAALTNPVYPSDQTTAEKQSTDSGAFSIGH
Nature of the assay: Whole-cell patch clamp on HEK293 cells expressing recombinant human P2X3Rs. The format is cell-based. The method, then:
Rat trigeminal, nodose, or dorsal root ganglion (TG, NG, and DRG, respectivley) neurons in culture were prepared as described previously.[46],[47] Neurons were plated on poly-L-lysine (0.2 mg/ml)-coated Petri dishes and cultured for one to two days under an atmosphere containing 5% CO2. Cells were used within two days of plating when they lacked processes. HEK293T cells were prepared as reported previously[32],[48] and transfected with rat or human full-length P2X3 cDNA subcloned into pIRES2-EGFP (Clontech, Mountain View, CA, USA).
TG, NG, DRG, or HEK cells were recorded in the whole-cell configuration while being continuously superfused (at 2 ml/min) with control solution containing (in mM): 152 NaCl, 5 KCl, 1 MgCl2, 2 CaCl2, 10 glucose, and 10 HEPES; pH was adjusted to 7.4 with NaOH and osmolarity was adjusted to 320 mOsM with glucose. […] Responses to selective P2X3R agonist α,β-methylene-ATP (α,β-meATP; resistant to ectoATPase hydrolysis, Sigma-Aldrich) were measured using an EPC-9 amplifier operated by HEKA Patch Master software (HEKA Electronik, Germany). Cells were voltage-clamped at −70 mV. In most cells, series resistance was compensated by 80%. To determine EC50 values, dose-response curves were constructed for α,β-meATP by administering different agonist doses same cells and fitting data to a logistic equation (Origin 8.0, Microcal, Northampton, MA).
Agonists and antagonists were applied (usually for 2 s) via a rapid superfusion system (Rapid Solution Changer RSC-200; BioLogic Science Instruments, Grenoble, France) placed 100 to 150 µm near the cell. The time for the solution exchange across the cell was approximately 30 ms, as judged with liquid junction potential measurements. All chemicals, including enzymes for cell culture, were from Sigma-Aldrich (St. Louis, MO). […]
The peak amplitudes of the responses were measured using HEKA Patch Master software. […] All data are presented as mean ± SEM (n = the number of cells) with statistical significance assessed by paired t-test (for parametric data) or Mann-Whitney rank-sum test (for nonparametric data). […]
On the technique in general: The patch-clamp technique gives a direct electrical read-out from membranes.

The target in the next assay is T2, rat P2X4 receptors (Rattus norvegicus, UniProt P51577).
T2 construct: expressed in transfected cells; host or cells: HEK293
T2 sequence (P51577 1-388): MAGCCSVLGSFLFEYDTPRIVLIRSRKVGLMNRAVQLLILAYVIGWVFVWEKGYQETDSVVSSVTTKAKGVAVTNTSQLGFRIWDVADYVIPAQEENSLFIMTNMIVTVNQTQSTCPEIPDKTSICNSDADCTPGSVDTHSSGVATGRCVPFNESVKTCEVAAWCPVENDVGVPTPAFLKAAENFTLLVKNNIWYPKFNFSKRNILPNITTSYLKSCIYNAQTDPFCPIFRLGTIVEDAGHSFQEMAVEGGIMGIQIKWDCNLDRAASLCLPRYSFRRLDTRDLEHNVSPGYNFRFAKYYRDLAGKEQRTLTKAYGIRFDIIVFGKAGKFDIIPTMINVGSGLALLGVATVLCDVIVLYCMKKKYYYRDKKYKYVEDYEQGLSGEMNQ
Nature of the assay: Whole-cell patch clamp on HEK293 cells expressing rat P2X4 receptors (ATP-induced currents). The class given is cell-based. The settings on record: 1 µM; 10 µM ATP every 2 min.

Take `Nc1ncnc2c1ncn2[C@@H]1O[C@H](COP(=O)(O)OP(=O)(O)NP(=O)(O)OP(=O)(O)OC[C@H]2O[C@@H](n3cnc4c(N)ncnc43)[C@H](O)[C@@H]2O)[C@@H](O)[C@H]1O` [AppNHppA, diadenosine 5′,5′′′-P^1,P^4-(β,γ-imido)tetraphosphate]: in assay [1] (HEK293, read-out: α,β-meATP test currents, % of control), the remaining activity at 1 µM was 12 ± 4%. Besides, the remaining activity at 0.1 µM in assay [1] (HEK293, read-out: α,β-meATP test responses, % of control) was 48 ± 8%. Besides, the activity at 0.01 µM in assay [1] (HEK293, read-out: α,β-meATP-activated currents, % of control values) is 80 ± 5%. Also, the “HAD or partial agonism effect on P2X4R-mediated currents” value at rat P2X4 receptors is “did not produce any HAD or partial agonism effects; also recorded: does not inhibit”.

(Values after publication PMC4955970, “Stable, synthetic analogs of diadenosine tetraphosphate inhibit rat and human P2X3 receptors and inflammatory pain” (Molecular Pain, 2016).)
